Measured values taken from patent publication US20180136241A1, “METHOD FOR EXAMINING FOOD ALLERGY AND EXAMINATION KIT” (The University of Tokyo, priority 2014, published 2018).

What was measured:
[1] = system: tetranor-PGDM amount excreted in the urine; assay: Urinary tetranor-PGDM by HPLC-MS/MS in OVA-induced food allergy model mouse; assay type: in vivo; details: BALB/c mice sensitized with OVA, drug i.p. every day during OVA oral administration period; cromolyn 300 μg/mouse, DEX 2 mg/kg; n=5
Method: (§1) Model preparation: Wild type BALB/c mice (6-8 weeks old, female) were intraperitoneally sensitized with OVA by administering OVA (50 μg) twice at intervals of two weeks. Two weeks later, OVA (10 mg) was orally administered 10 times in total at intervals of two days. As a control, the mice sensitized with OVA was orally administered with physiological saline 10 times in total at intervals of two days.
Medication treatment: During the period of orally administering OVA to the mice sensitized with OVA in accordance with the aforementioned method, dexamethasone (2 mg/kg) or sodium cromoglycate (300 μg/mouse) were intraperitoneally administered every day. […]
Using the urine sample pretreated, tetranor-PGDM and tetranor-PGEM were measured by a high performance liquid chromatography tandem mass spectrometer (HPLC-MS/MS). […] As a quantitative method, MRM (Multiple Reaction Monitoring) method was employed. Tetranor-PGDM (mass number 328) and tetranor-PGEM (mass number 328) were detected by using product ion m/z 309, which was produced by further decomposing the produced precursor ion m/z (mass number÷charge) 327 by collision induced dissociation (CID). Internal standards, tetranor-PGDM-d6 (mass number 334) and tetranor-PGEM-d6 (mass number 334), were detected by using product ion m/z 315, which was produced by further decomposing precursor ion m/z (mass number÷charge) 333 by CID. […]

[2] = system: food allergy symptoms induced by OVA; assay: Frequency of diarrhea in OVA-induced food allergy model mouse; assay type: in vivo; details: BALB/c mice sensitized with OVA, drug i.p. every day during OVA oral administration period; cromolyn 300 μg/mouse, DEX 2 mg/kg; n=5
Method: as §1
Medication treatment: During the period of orally administering OVA to the mice sensitized with OVA in accordance with the aforementioned method, dexamethasone (2 mg/kg) or sodium cromoglycate (300 μg/mouse) were intraperitoneally administered every day.
Symptom evaluation: The number of mice which developed diarrhea within one hour after the OVA administration is determined in percentage.

[3] = cited from earlier work
[4] = cited from earlier work; remark: listed apart in the source

## O=C(O)c1cc(=O)c2c(OCC(O)COc3cccc4oc(C(=O)O)cc(=O)c34)cccc2o1 [cromolyn, sodium cromoglycate]
[1]
  tetranor-PGDM amount excreted in the urine: significantly decreased
[2]
  food allergy symptoms induced by OVA (frequency of diarrhea): suppressed food allergy symptoms

## CCCCC[C@H](O)/C=C/[C@H]1C(=O)C[C@H](O)[C@@H]1C/C=C\CCCC(=O)O [PGD2, prostaglandin D2]
[3]
  time in which PGD2 is metabolized in vivo: 50 s

## NCCc1c[nH]cn1 [histamine]
[4]
  time in which histamine in the blood disappears: 15 min
